# Source: PubChem BioAssay AID192 (DTP/NCI, 2004)
# Where “and” joins values, the source holds several entries; their conditions need not be identical. Equal values may be shown once. Inconclusive results and toxic doses are left out.
# System: BDF1 mice, B16 melanoma ip, median survival T/C
# Test: NCI In Vivo Anticancer Drug Screen. Data for tumor model B16 Melanoma (intraperitoneal) in B6D2F1 (BDF1) mice
# Conditions: endpoint: median survival time, schedule: Q01DX009 (ip), higher = longer survival
# In short: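 Values are ratios of treated (T) to vehicle-control (C) measurements of survival or tumor size in tumor-bearing mice.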
# [1] = dose: 25.0 mg/kg/injection, vehicle: saline
# [2] = dose: 50.0 mg/kg/injection, vehicle: saline
# [3] = dose: 25.0 mg/kg/injection, vehicle: saline with Tween-80
# [4] = dose: 50.0 mg/kg/injection, vehicle: Klucel (hydroxypropylcellulose) (HPC)
# [5] = dose: 100.0 mg/kg/injection, vehicle: saline
# [6] = dose: 200.0 mg/kg/injection, vehicle: saline
# [7] = dose: 1.5 mg/kg/injection, vehicle: saline
# [8] = dose: 3.0 mg/kg/injection, vehicle: saline
# [9] = dose: 100.0 mg/kg/injection, vehicle: Klucel (hydroxypropylcellulose) (HPC)
# [10] = dose: 200.0 mg/kg/injection, vehicle: Klucel (hydroxypropylcellulose) (HPC)
# [11] = dose: 100.0 mg/kg/injection, vehicle: saline with Tween-80
compound,measurement,setting,value
COc1cc(C)c2c(c1C=O)Oc1c(c(C)c(O)c3c1C(O)OC3=O)OC2=O (stereo not drawn),T/C,"dose: 3.12 mg/kg/injection, vehicle: saline",101 % of control
same,T/C,"dose: 6.25 mg/kg/injection, vehicle: saline",94 % of control
same,T/C,"dose: 12.5 mg/kg/injection, vehicle: saline",100 % of control
same,T/C,[1],101 % of control
same,T/C,[2],87 % of control
COc1cc2c(cc1OC)C(OC)N(C)c1c-2ccc2cc3c(cc12)OCO3 (stereo not drawn),T/C,[3],122 % of control
C=C1C(=O)O[C@@H]2[C@H]3O[C@]3(C)CCC=C(C)CC[C@@H]12,T/C,"dose: 12.5 mg/kg/injection, vehicle: Klucel (hydroxypropylcellulose) (HPC)",92 % of control
same,T/C,"dose: 25.0 mg/kg/injection, vehicle: Klucel (hydroxypropylcellulose) (HPC)",87 % of control
same,T/C,[4],92 % of control
C=CCNC(=O)NCC=C,T/C,[1],114 % of control
same,T/C,[2],109 % of control
same,T/C,[5],95 % of control
same,T/C,[6],100 % of control
COc1cccc2c1C(=O)c1c(O)c3c(c(O)c1C2=O)C[C@@](O)(/C(C)=N/NC(=O)c1ccc(S(N)(=O)=O)cc1)C[C@@H]3OC1CC(N)C(O)C(C)O1 (stereo partly drawn),T/C,"dose: 3.13 mg/kg/injection, vehicle: water",190 % of control
same,T/C,"dose: 6.25 mg/kg/injection, vehicle: water",258 % of control
same,T/C,"dose: 12.5 mg/kg/injection, vehicle: water",259 % of control
CC(=O)SCCC(=O)O,T/C,"dose: 0.75 mg/kg/injection, vehicle: saline",107 % of control
same,T/C,[7],112 % of control
same,T/C,[8],114 % of control
CCc1ccc(NC(=O)NC(C)C)cc1,T/C,[4],112 % of control
same,T/C,[9],109 % of control
same,T/C,[10],103 % of control
C[CH2][Ge]([CH2]C)[CH2]C.C[CH2][Ge]([CH2]C)[CH2]C.C[CH2][Ge]([CH2]C)[O][Ge]([CH2]C)[CH2]C,T/C,"dose: 6.25 mg/kg/injection, vehicle: saline with Tween-80",101 % of control
same,T/C,"dose: 12.5 mg/kg/injection, vehicle: saline with Tween-80",100 % of control
same,T/C,[3],101 % of control
same,T/C,"dose: 50.0 mg/kg/injection, vehicle: saline with Tween-80",91 % of control
same,T/C,[11],100 % of control
C/C=C\C#N,T/C,[2],107 % of control
same,T/C,[5],107 % of control
CC(=O)CC(=O)Nc1cccc(Cl)c1C,T/C,[4],103 % of control
same,T/C,[9],96 % of control
same,T/C,[10],106 % of control
C[CH2][Pb]([CH2]C)([CH2]C)[O][As](=O)(O)c1ccc(N)cc1,T/C,[7],98 % of control
same,T/C,[8],96 % of control
CC1CCCN(c2ccc([N+](=O)[O-])cc2[N+](=O)[O-])C1 (stereo not drawn),T/C,[9],93 % of control
same,T/C,"dose: 400.0 mg/kg/injection, vehicle: Klucel (hydroxypropylcellulose) (HPC)",100 % of control
COC(=O)NC1C(C)OC(OC2C/C=C(/C)C3C=CC4C(OC5CC(OC6CCC(OC7CC(O)C(OC8CCC(O)C(C)O8)C(C)O7)C(C)O6)C(OC(C)=O)C(C)O5)C(C)CC(C)C4C3(C)/C(O)=C3/C(=O)OC4(CC(C=O)=CC(O)C4/C=C\2C)C3=O)CC1(C)[N+](=O)[O-] (stereo not drawn),T/C,"dose: 2.5 mg/kg/injection, vehicle: water",159 % of control
same,T/C,"dose: 5.0 mg/kg/injection, vehicle: water",165 % of control
same,T/C,"dose: 10.0 mg/kg/injection, vehicle: water",157 % of control
CCN(CC)CCOC(=O)c1cccnc1,T/C,[1],100 % of control
same,T/C,[2],105 % of control
same,T/C,[5],102 % of control
same,T/C,[6],102 % of control
same,T/C,"dose: 400.0 mg/kg/injection, vehicle: saline",100 % of control
O=C(/C(=C\c1ccccc1)CBr)c1ccccc1,T/C,"dose: 0.12 mg/kg/injection, vehicle: Klucel (hydroxypropylcellulose) (HPC)",101 % of control
same,T/C,"dose: 0.25 mg/kg/injection, vehicle: Klucel (hydroxypropylcellulose) (HPC)",88 % of control
same,T/C,"dose: 0.5 mg/kg/injection, vehicle: Klucel (hydroxypropylcellulose) (HPC)",88 % of control
O=C(OCCCCCCl)c1ccccc1,T/C,[11],117 % of control
same,T/C,"dose: 200.0 mg/kg/injection, vehicle: saline with Tween-80",104 % of control
same,T/C,"dose: 400.0 mg/kg/injection, vehicle: saline with Tween-80",106 % of control
OCc1ccccc1NCc1ccccc1,T/C,"dose: 100.0 mg/kg/injection, vehicle: other",91 % of control and 109 % of control
same,T/C,"dose: 200.0 mg/kg/injection, vehicle: other",100 % of control
same,T/C,"dose: 400.0 mg/kg/injection, vehicle: other",95 % of control and 98 % of control
